Experimental data taken from patent publication US10543202B2 (University of Saskatchewan, priority 2017, dated 2020).
“Also recorded” adds a separate entry of the source.

Assays:
Type in all cases: physicochemical
[1] = Thin film of cream exposed to UVA light (photostability); settings: for effect of photostabilizer in nifedipine emulsion on stability of nifedipine to UVA light: photostabilizer incorporated at varying concentrations up to 3% w/w in nifedipine 2% w/w cream
Excerpt: (§1) Light Exposure: A UVA lamp was mounted 8.5 inches above a lab bench surface and the flux set to 740-750 μW/cm^2. This level of flux is roughly equivalent to a bright sunny day in mid-summer. […] The lamp apparatus was placed inside an enclosure with an access door, to prevent ambient light entering and for worker safety. For samples exposed to “ambient light”, these were placed on a laboratory bench where standard fluorescent lighting was used. […] To prevent drying, the samples were covered with Saran Wrap®, a plastic film that was determined to be UVA-transparent. After the allotted exposure time the cream was scraped off the slide for extraction with methanol. Samples which were exposed while in solution and not incorporated in a cream were dissolved in methanol as a 20 mL solution in a 100 mL beaker.
The sample was warmed in a water bath to 85° C. to melt lipids, followed by addition of 5 mL of methanol and vortex mixing. The samples were centrifuged at 14,000×g for 5 minutes and the supernatant retained for analysis.
Values reported represent mean±SD for triplicate measurements.

[2] = Emulsion phase stability analysis (LUMiSizer photocentrifuge, instability index); settings: photocentrifuge 42° C., 12 hrs, versus emulsion without photostabilizers
Method: This allows for an approximation of the relative stability to phase separation of emulsions that differ in the type or percentage of photoprotectant and for confirming batch-to-batch consistency in stability against phase separation.^35 For each sample type, triplicate samples of 2 mL were loaded into photocentrifuge acrylic cuvettes. The samples were centrifuged at 42° C.×12 hrs. Phase separation was detected as an increase in light transmission at the top of the sample, which is interpreted as an “instability index” reflecting the rate of change of light transmission.

[3] = Mass spectrometry analysis of nifedipine and its photodegradants in UVA-exposed creams
Excerpt: as §1

Row | difference in nifedipine concentration between preparations with and without rutin ([1]; 2 h UVA exposure) | effectiveness as photoprotectant for nifedipine in O/W emulsion ([1]; concentrations up to 2% (w/w)) | Structure (SMILES) | effect of photostabilizer in nifedipine emulsion on stability of nifedipine to UVA light [1] | effect of photostabilizer on instability index / phase stability of nifedipine emulsion [2] | alternative nifedipine degradation pathways in presence of photostabilizer [3] | effect of quercetin on photostability of nifedipine cream after UVA exposure ([1]; quercetin 0.5% w/w alone in nifedipine cream) | reduction of UVA-induced degradation of nifedipine ([1]; rutin 0.5-3% (w/w), 20 mg thin film, over 3 hrs)
1 |  |  | COc1ccc(C(=O)CC(=O)c2ccc(C(C)(C)C)cc2)cc1 [BMDBM, 1-(4-methoxyphenyl)-3-[4-(2-methyl-2-propanyl)phenyl]-1,3-propanedione] | moderately effective | reduced the instability; also recorded: increased the stability of the nifedipine emulsion | no alternative degradation pathways identified |  | 
2 |  |  | O=c1c(O)c(-c2ccc(O)c(O)c2)oc2cc(O)cc(O)c12 [quercetin, 2-(3,4-dihydroxyphenyl)-3,5,7-trihydroxy-4H-chromen-4-one] | increased the stability of nifedipine to UVA light | reduced the instability; also recorded: increased the stability of the nifedipine emulsion | no alternative degradation pathways identified | moderately effective; also recorded: photostability was improved | 
3 | No significant difference | ineffective | C[C@@H]1O[C@@H](OC[C@H]2O[C@@H](Oc3c(-c4ccc(O)c(O)c4)oc4cc(O)cc(O)c4c3=O)[C@H](O)[C@@H](O)[C@@H]2O)[C@H](O)[C@H](O)[C@H]1O [rutin, 2-(3,4-dihydroxyphenyl)-5,7-dihydroxy-4-oxo-4H-chromen-3-yl 6-O-(6-deoxy-α-L-mannopyranosyl)-β-D-glucopyranoside] | not protected from photodegradation; also recorded: not effective |  | no alternative degradation pathways identified |  | did not significantly reduce UVA-induced degradation of nifedipine
